Measured values as given in patent US20100298141A1, “SUBSTITUTED PYRIDINE N-OXIDE HERBICIDES” (E. I. DU PONT DE NEMOURS AND COMPANY, priority 2007, published 2010).

How the values were obtained:
yellow nutsedge = assay: Test C pre-/postemergence test; type: in vivo, Cyperus esculentus
Procedure, shortened: (§1)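 Compounds in a non-phytotoxic solvent with surfactant applied preemergence to seeded pots and, at the same time, postemergence to plants 2–18 cm tall (1- to 4-leaf stage). Paddy tests: pots flooded to 3 cm, compound applied into the water, depth held throughout.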

downy brome = assay: Test C pre-/postemergence test; type: in vivo, Bromus tectorum
Procedure, shortened: as §1

woolly cupgrass = assay: Test C pre-/postemergence test; type: in vivo, Eriochloa villosa
Procedure, shortened: as §1

morningglory [1] = assay: Test C pre-/postemergence test; type: in vivo, Ipomoea coccinea
Procedure, shortened: as §1

Goosegrass = assay: Test C pre-/postemergence test; type: in vivo, Eleusin indica
Procedure, shortened: as §1

cocklebur = assay: Test C pre-/postemergence test; type: in vivo, Xanthium strumarium
Procedure, shortened: as §1

umbrella sedge = assay: Test C flooded paddy test; type: in vivo, Cyperus difformis; conditions: Flood
Procedure, shortened: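 Ratings were visual and made relative to untreated controls after 13 to 15 greenhouse days.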

lambsquarters = assay: Test C pre-/postemergence test; type: in vivo, Chenopodium album
Procedure, shortened: as §1

common ragweed = assay: Test C pre-/postemergence test; type: in vivo, Ambrosia elation
Procedure, shortened: as §1

johnsongrass = assay: Test C pre-/postemergence test; type: in vivo, Sorghum halepense
Procedure, shortened: as §1

corn = assay: Test C pre-/postemergence test; type: in vivo, Zea mays
Procedure, shortened: as §1

giant foxtail [2] = assay: Test A pre-/postemergence greenhouse test; type: in vivo, Setaria faberi; conditions: for Foxtail, Giant plant response rating: 0 to 100 scale
Procedure, shortened: (§2)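 Visual injury ratings, made relative to untreated controls roughly ten days after treatment, cover both preemergence and postemergence application. Compounds in a surfactant-containing non-phytotoxic solvent were sprayed onto the soil surface after sowing and, simultaneously, onto young plants at the one- to two-leaf stage.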

crabgrass = assay: Test A pre-/postemergence greenhouse test; type: in vivo, Digitaria sanguinalis; conditions: for Crabgrass, Large plant response rating: 0 to 100 scale
Procedure, shortened: as §2

soybean = assay: Test C pre-/postemergence test; type: in vivo, Glycine max
Procedure, shortened: as §1

morningglory [3] = assay: Test A pre-/postemergence greenhouse test; type: in vivo, Ipomoea spp.; conditions: for Morningglory plant response rating: 0 to 100 scale
Procedure, shortened: as §2

giant foxtail [4] = assay: Test C pre-/postemergence test; type: in vivo, Setaria faberii
Procedure, shortened: as §1

wheat = assay: Test A pre-/postemergence greenhouse test; type: in vivo, Triticum aestivum; conditions: for Wheat plant response rating: 0 to 100 scale
Procedure, shortened: as §2

[5] = 62 g ai/ha, Preemergence, scale 0 to 100
[6] = 125 g ai/ha, preemergence, scale 0 (no effect) to 100 (complete control)
[7] = Preemergence, 31 g ai/ha, scale 0 to 100 (0 no effect, 100 complete control)
[8] = preemergence, 250 g ai/ha, scale 0 (no effect) to 100 (complete control)
[9] = Postemergence, 125 g ai/ha, 0 is no effect, 100 is complete control
[10] = Postemergence, 500 g ai/ha, 0 is no effect, 100 is complete control
[11] = Preemergence, 125 g ai/ha, 0 no effect, 100 complete control
[12] = Preemergence, 500 g ai/ha, 0 to 100 scale where 0 is no effect and 100 is complete control

## Cn1nc(C(F)(F)F)c(C[S+]([O-])c2cc(F)cc[n+]2[O-])c1Cl (racemic) [Compound 42]
Yellow nutsedge; [5]
  Nutsedge, Yellow plant response rating: 60
Yellow nutsedge; [6]
  Nutsedge, Yellow plant response rating: 85
Yellow nutsedge; [7]
  Plant response rating, Nutsedge, Yellow: 0
Yellow nutsedge; [8]
  Nutsedge, Yellow plant response rating: 95
Downy brome; [5]
  Bromegrass, Downy plant response rating: 15
Downy brome; [6]
  Bromegrass, Downy plant response rating: 45
Downy brome; [7]
  Plant response rating, Bromegrass, Downy: 10
Downy brome; [8]
  Bromegrass, Downy plant response rating: 70
Woolly cupgrass; [5]
  Cupgrass, Woolly plant response rating: 55
Woolly cupgrass; [6]
  Cupgrass, Woolly plant response rating: 85
Woolly cupgrass; [7]
  Plant response rating, Cupgrass, Woolly: 35
Woolly cupgrass; [8]
  Cupgrass, Woolly plant response rating: 90
Morningglory [1]; [5]
  Morningglory plant response rating: 50
Morningglory [1]; [6]
  Morningglory plant response rating: 50
Morningglory [1]; [7]
  Plant response rating, Morningglory: 0
Morningglory [1]; [8]
  Morningglory plant response rating: 90
Goosegrass; [5]
  Goosegrass plant response rating: 100
Goosegrass; [6]
  Goosegrass plant response rating: 100
Goosegrass; [7]
  Plant response rating, Goosegrass: 85
Goosegrass; [8]
  Goosegrass plant response rating: 100
cocklebur; [5]
  Cocklebur plant response rating: 0
cocklebur; [6]
  Cocklebur plant response rating: 0
cocklebur; [7]
  Plant response rating, Cocklebur: 0
cocklebur; [8]
  Cocklebur plant response rating: 50
Umbrella sedge; 31 g ai/ha, scale 0 to 100 (0 no effect, 100 complete control)
  Plant response rating, Sedge, Umbrella: 80
Umbrella sedge; 62 g ai/ha, scale 0 to 100, 0 no effect, 100 complete control, 13 to 15 days
  Plant response rating, Sedge, Umbrella: 85
Umbrella sedge; 125 g ai/ha, scale 0 to 100, 0 no effect, 100 complete control, 13 to 15 days
  Plant response rating, Sedge, Umbrella: 90
Umbrella sedge; 250 g ai/ha, scale 0 to 100, 0 no effect, 100 complete control, 13 to 15 days
  Plant response rating, Sedge, Umbrella: 95
lambsquarters; [5]
  Lambsquarters plant response rating: 100
lambsquarters; [6]
  Lambsquarters plant response rating: 100
lambsquarters; [7]
  Plant response rating, Lambsquarters: 80
lambsquarters; [8]
  Lambsquarters plant response rating: 100
Common ragweed; [5]
  Ragweed plant response rating: 70
Common ragweed; [6]
  Ragweed plant response rating: 90
Common ragweed; [7]
  Plant response rating, Ragweed: 5
Common ragweed; [8]
  Ragweed plant response rating: 90
johnsongrass; [5]
  Johnsongrass plant response rating: 98
johnsongrass; [6]
  Johnsongrass plant response rating: 100
johnsongrass; [7]
  Plant response rating, Johnsongrass: 55
johnsongrass; [8]
  Johnsongrass plant response rating: 100
corn; [5]
  Corn plant response rating: 25
corn; [6]
  Corn plant response rating: 60
corn; [7]
  Plant response rating, Corn: 0
corn; [8]
  Corn plant response rating: 80
Giant foxtail [2]; [9]
  Foxtail, Giant plant response rating: 80
Giant foxtail [2]; [10]
  Foxtail, Giant plant response rating: 90
Giant foxtail [2]; [11]
  Foxtail, Giant plant response rating: 100
Giant foxtail [2]; [12]
  Plant response rating, Foxtail, Giant: 100
crabgrass; [9]
  Crabgrass, Large plant response rating: 80
crabgrass; [10]
  Crabgrass, Large plant response rating: 90
crabgrass; [11]
  Crabgrass, Large plant response rating: 70
crabgrass; [12]
  Plant response rating, Crabgrass, Large: 100
soybean; [5]
  Soybean plant response rating: 0
soybean; [6]
  Soybean plant response rating: 40
soybean; [7]
  Plant response rating, Soybean: 0
soybean; [8]
  Soybean plant response rating: 40
Morningglory [3]; [9]
  Morningglory plant response rating: 40
Morningglory [3]; [10]
  Morningglory plant response rating: 90
Morningglory [3]; [11]
  Morningglory plant response rating: 30
Morningglory [3]; [12]
  Plant response rating, Morningglory: 90
Giant foxtail [4]; [5]
  Foxtail, Giant plant response rating: 100
Giant foxtail [4]; [6]
  Foxtail, Giant plant response rating: 100
Giant foxtail [4]; [7]
  Plant response rating, Foxtail, Giant: 98
Giant foxtail [4]; [8]
  Foxtail, Giant plant response rating: 100
wheat; [9]
  Wheat plant response rating: 40
wheat; [10]
  Wheat plant response rating: 50
wheat; [11]
  Wheat plant response rating: 20
wheat; [12]
  Plant response rating, Wheat: 60
